# Columns and labels:
# [1] = Carotenoid ester content and deposition rate in egg yolk of laying hens (HPLC); format: in vivo, laying hens (ISA Brown); conditions: egg yolk; for Deposition Rate Target Values % of Controls / Ethyl β-apo-8′-carotenoate Equivalents % of Controls: Table 8; for Deposition Rate % of Controls: Table 10
# Description: (§1) Pigmentation efficacy was assessed in egg yolk, in the back skin of the broiler carcass, and in broiler shanks by reflectance colorimetry accompanied by visual scoring (Roche Colour Fan). The deposition of the ethyl-β-apo-8′-carotenoate (control) and the other carotenoid esters was determined in egg yolk and in the broiler back skin. In addition, the carotenoid levels in plasma and abdominal fat were measured.
# Each year in February the pigmentation trials are started with a new flock of layers.
# (§2) Preceding the trials the hens were fed a low carotenoid basal diet (produced at the CRNA) without carotenoid supplementation for at least 28 days. During the trials, the control group received the low carotenoid basal diet containing less than 2 mg total xanthophylls per kg of feed. The other animals were fed this diet supplemented with the appropriate pigments for three weeks. The diet was given to the animals ad libitum in mash form. The hens had free access to tap water.
# Peaks were related to all-E- and Z-isomers of the various carotenoid esters by chromatography of heat-isomerized solutions of the respective reference substances in n-hexane. The HPLC system was calibrated with the all-E-isomer of ethyl β-apo-8′-carotenoate. The response factor of the various derivatives was deduced from that of ethyl β-apo-8′-carotenoate taking into account the respective molecular weight. The content of the Z-isomer fractions was calculated based on the response of the all-E-isomer and using a correction factor of 1.4 to account for the lower specific absorbance of the Z-isomers.
# (§3) The HPLC-system for in-feed analysis was also used to quantify the carotenoid esters in egg yolk, broiler tissues, and broiler plasma, but the extraction procedure was different for the various matrices.
# For the extraction of egg yolk, 10 g of pooled and homogenised yolk were mixed with 10 ml of demineralized water using a dispersion instrument (Polytron). 1.0 g of diluted egg yolk was introduced into a 10 ml test tube with 1.0 ml of demineralized water and 2.0 ml of ethanol, and the contents were mixed on a Vortex shaker. After addition of 4.0 ml of n-hexane, the mixture was further treated as described for plasma.
# [2] = Carotenoid ester content in plasma, back skin and abdominal fat of broilers (HPLC); format: in vivo, broiler chickens (Ross 308, Ross 508); conditions: average over doses, Table 4
# Description: as §1
# (§4) The trials were carried out using chickens of the type Ross 308 (trials MC-24/98 and MC-02/99) and Ross 508 (trials MC-11/99, MC-16/99, MC-24/99, and MC-03/00) (Couvir de la Bohardière, F-49290 Saint Laurent de la Plaine). One-day old broiler chickens, separated by sex, were divided by weight into experimental groups of ten animals each and reared in floor pens littered with wood shavings. The chickens were fed a low carotenoid basal grower diet until day 22 (trials MC-24/98, MC-02/99, and MC-11/99) or until day 15 (trials MC-16/99, MC-24/99, and MC-03/00). The low carotenoid basal grower diet contained less than 2 mg total xanthophylls per kg of feed, and its composition is described in Table 2. For the subsequent experimental period of three weeks, the birds received the basal diet supplemented with an appropriate pigment. The feed was given in the form of crumbled pellets during the first week and as pellets thereafter. The animals had unrestricted access to feed and water. A given treatment involved one group of male and one group of female chickens. Each group of chickens was weighed at day 22 (trials MC-24/98, MC-02/99, and MC-11/99) or day 15 (trials MC-16/99, MC-24/99, and MC-03/00) and on day 43. On day 42, five chickens per group were selected at random, labelled, and blood samples were taken from the jugular vein. At the end of the experiment (day 44) the animals were slaughtered in a commercial slaughterhouse (Freyburger, Dannemarie, France). The following day, the color of the skin (hind back of carcasses) and the shanks of the labelled chicken were measured by reflectance colorimetry (Minolta CR 200 apparatus, CIE-Lab system). Samples of the dorsal skin and abdominal fat were obtained, pooled for each experimental group, and the carotenoid concentration was determined. The concentration of carotenoids in feed, plasma, skin, and abdominal fat was determined by standard procedures as described after Tables 1 and 2.
# The content of the various carotenoid esters in feed was determined according to the method of Schierle, et al. (J. Schierle , N. Faccin, V. Riegert, Analytical Methods for Vitamins and Carotenoids in Feed, Revised supplement: Determination of Stabilized Apocarotenoic Ester and Canthaxanthin in Premixes and Feeds, Roche publication no. 50771 (1995), publicly available from. F. Hoffmann-La Roche Ltd., CH-4070 Basel). This method was modified in that the mobile phase of the normal-phase HPLC contained 0.5% instead of 7% acetone in n-hexane, improving the separation of the E/Z-isomers of the carotenoid esters. Peaks were related to all-E- and Z-isomers of the various carotenoid esters by chromatography of heat-isomerized solutions of the respective reference substances in n-hexane. The HPLC system was calibrated with the all-E-isomer of ethyl β-apo-8′-carotenoate. The response factor of the various derivatives was deduced from that of ethyl β-apo-8′-carotenoate taking into account the respective molecular weight. The content of the Z-isomer fractions was calculated based on the response of the all-E-isomer and using a correction factor of 1.4 to account for the lower specific absorbance of the Z-isomers.
# as §3
# For plasma extraction, 1.0 g of the well-mixed plasma sample was introduced into a 10 ml test tube with 1.0 ml of demineralized water and 4.0 ml of ethanol, and the contents mixed on a Vortex shaker. […]
# [3] = tested on: skin and shanks of broilers; test: Reflectance colorimetry and visual classification of skin and shanks of broilers; format: in vivo, broiler chickens (Ross 308, Ross 508); set-up: key to Shanks Visual Classification / Skin Visual Classification: −; (+); +; ++ = good color; o = orange; conditions: dry carcasses, average over doses, Table 6
# Description: as §1, §4
# The color of broiler skin and shanks was measured using a tristimulus Minolta CR-300 Chromameter with diffuse D65-illumination and a 0° viewing angle. The color of the skin was read at three different points on the back of the dry broiler carcasses and average values of the triple measurements were recorded. The color of shanks was measured using single measurements at the ball between the toes.
# (§5) The color data were expressed as CIE L*a*b*-values including h*(hue) and C* (chroma). The values given in the tables per treatment and trial represent averages of color measurements of four egg yolk pools, ten broiler back skins, or ten broiler shanks (5 males and 5 females).
# egg yolk = test: Egg yolk colour: reflectance colorimetry and Roche Yolk Colour Fan; format: in vivo, laying hens (ISA Brown); conditions: egg yolk, laying hens, 5.0 mg/kg feed
# Description: as §1
# The trials were carried out following the standard experimental design used for egg yolk pigmentation trials at the Roche Research Center for Animal Nutrition (CRNA, F-68305 Village-Neuf, France). Each year in February the pigmentation trials are started with a new flock of layers. At the beginning of the trials the age of the laying hens (192 birds, type ‘ISA Brown’) were as follows:
# as §2, with “water. Beside the unsupplemented control treatment, treatments were carried out involving the provision of supplemented feed, the results of these treatments being presented in Tables 7-9.” for “water.”
# Egg yolk color was assessed as described by Steinberg, et al. (Arch. Geflügelk 64 (4), 180-187 (2000)). The yolks were manually separated from the whites of the eggs. The isolated yolks of three to six eggs were combined, weighed, and stirred with a glass rod until the color appeared homogeneous. The color hue was visually scored using the Roche Yolk Colour Fan (RYCF, version 1993). An aliquot of the pooled egg yolks was transferred into a glass cuvette yielding an approximately 2 cm thick layer. The color was then measured by means of a Dr. Lange Xeno Color LS 100 spectro-colorimeter with diffuse D65-illumination and a 8° viewing angle.
# as §5
Compound,Analytical Content as Equivalent of Ethyl β-apo-8′-carotenoate in % of control Fat [2] [%],Analytical Content as Equivalent of Ethyl β-apo-8′-carotenoate in % of control Plasma [2] [%],Analytical Content as Equivalent of Ethyl β-apo-8′-carotenoate in % of control Skin [2] [%],Shanks Chroma C*ab % of Controls [3] [%],Shanks Color Hue h*ab % of Controls [3] [%],Shanks Visual Classification [3],Skin Chroma C*ab % of Controls [3] [%],Skin Color Hue h*ab % of Controls [3] [%],Skin Visual Classification [3],"Deposition Rate Target Values % of Controls ([1]; trial H-25/99, 5.0 mg/kg feed) [%]","Ethyl β-apo-8′-carotenoate Equivalents % of Controls ([1]; trial H-25/99, 5.0 mg/kg feed) [%]","Deposition Rate % of Controls ([1]; trial H-25/99, 5.0 mg/kg feed) [%]","Color Fan Value % of Controls (egg yolk; trial H-25/99, Table 8) [%]","Chroma C*ab % of Controls (egg yolk; trial H-25/99, Table 10) [%]","Color Fan Value % of Controls (egg yolk; trial H-25/99, Table 10) [%]","Color Hue h*ab % of Controls (egg yolk; trial H-25/99, Table 10) [%]",also measured
"CC(C=CC=C(C)C=CC1=C(C)CCCC1(C)C)=CC=CC=C(C)C=CC=C(C)C(=O)OCCC(C)C [(6), isoamyl beta-apo-8′-carotenoate]",35,62,38,86,101,(+),89,99,(+),–,–,–,–,–,–,–,"Deposition Rate Target Values % of Controls ([1]; trial H-18/99, 5.0 mg/kg feed): 90%; Ethyl β-apo-8′-carotenoate Equivalents % of Controls ([1]; trial H-18/99, 5.0 mg/kg feed): 80%; Deposition Rate % of Controls ([1]; trial H-18/99, 5.0 mg/kg feed): 90%; Color Fan Value % of Controls (egg yolk; trial H-18/99, Table 8): 116%; Chroma C*ab % of Controls (egg yolk; trial H-18/99, Table 10): 105%; Color Fan Value % of Controls (egg yolk; trial H-18/99, Table 10): 116%; Color Hue h*ab % of Controls (egg yolk; trial H-18/99, Table 10): 101%"
"CCC(C)COC(=O)C(C)=CC=CC(C)=CC=CC=C(C)C=CC=C(C)C=CC1=C(C)CCCC1(C)C (stereo not drawn) [(7), 2-methyl-butyl beta-apo-8′-carotenoate]",45,62,40,85,101,(+),80,94,(+),95,86,95,108,87,108,106,–
"CC(C=CC=C(C)C=CC1=C(C)CCCC1(C)C)=CC=CC=C(C)C=CC=C(C)C(=O)OCC(C)(C)C [(8), 2,2-dimethylpropyl beta-apo-8′-carotenoate]",62,78,76,98,101,(+),98,100,(+),89,81,89,108,94,108,101,–
"CCC(CC)COC(=O)C(C)=CC=CC(C)=CC=CC=C(C)C=CC=C(C)C=CC1=C(C)CCCC1(C)C [(9), 2-ethyl-1-butyl beta-apo-8′-carotenoate]",45,59,55,92,101,(+),82,101,+,87,77,87,101,99,101,92,–
"CCCC(C)COC(=O)C(C)=CC=CC(C)=CC=CC=C(C)C=CC=C(C)C=CC1=C(C)CCCC1(C)C (stereo not drawn) [(11), 2-methyl-1-pentyl beta-apo-8′-carotenoate]",50,59,69,92,101,(+),87,95,+,112,96,112,116,101,116,103,–
